According to PubChem BioAssay (NCI):
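Five compound concentrations were applied to cells in 96-well plates for 48 hours; endpoints were derived by simple linear interpolation of the resulting dose-response curve. Abbreviation: GI50, concentration required for 50% inhibition of growth. TGI marks complete inhibition of growth.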

How the values were obtained:
Experiment in all cases: DTP human tumour cell line panel, 48 h
[1] = system: OVCAR-3 ovarian
[2] = system: SF-295 CNS
[3] = system: SN12C renal
[4] = system: MDA-MB-231 breast
[5] = system: MCF7 breast
[6] = system: OVCAR-8 ovarian
[7] = system: MDA-MB-435
[8] = system: SK-MEL-28 melanoma
[9] = system: SF-268 CNS
[10] = system: SF-539 CNS
[11] = system: SNB-75 CNS
[12] = system: SR leukemia
[13] = system: OVCAR-5 ovarian
[14] = system: NCI-H23 lung
[15] = system: LOX IMVI melanoma
[16] = system: T-47D breast
[17] = system: PC-3 prostate
[18] = system: CCRF-CEM leukemia
[19] = system: K-562 leukemia
[20] = system: CAKI-1 renal
[21] = system: KM12 colon
[22] = system: HCC-2998 colon
[23] = system: UACC-257 melanoma
[24] = system: IGROV1 ovarian
[25] = system: MALME-3M melanoma
[26] = system: NCI/ADR-RES ovarian
[27] = system: NCI-H226 lung
[28] = system: NCI-H460 lung
[29] = system: HCT-116 colon

O=c1cc(-c2cccc3c2Sc2ccccc2S3)oc(N2CCOCC2)c1
GI50 [1]: 10.1 µM | TGI [1]: 21.9 µM | GI50 [2]: 11.5 µM | TGI [2]: 24.9 µM | GI50 [3]: 6.17 µM | TGI [3]: 21.8 µM | GI50 [4]: 11.8 µM | TGI [4]: 29.5 µM | GI50 [5]: 5.94 µM | TGI [5]: 22.4 µM | GI50 [6]: 12.9 µM | TGI [6]: 45.7 µM | GI50 [7]: 3.54 µM | TGI [7]: 13.5 µM | GI50 [8]: 11.1 µM | TGI [8]: 24.1 µM | GI50 [9]: 7.76 µM | TGI [9]: 24.2 µM | GI50 [10]: 11.6 µM | TGI [10]: 25.1 µM | GI50 [11]: 4.97 µM | TGI [11]: 19.9 µM | GI50 [12]: 4.21 µM | TGI [12]: 27.3 µM | GI50 [13]: 13.5 µM | TGI [13]: 28.3 µM | GI50 [14]: 15.5 µM | TGI [14]: 36.9 µM | GI50 [15]: 11.4 µM | TGI [15]: 37.4 µM | GI50 [16]: 3.69 µM | TGI [16]: 18.2 µM | GI50 [17]: 6.26 µM | TGI [17]: 20.9 µM | GI50 [18]: 21.1 µM | TGI [18]: > 55.8 µM | GI50 [19]: 5.98 µM | TGI [19]: 30.9 µM | GI50 [20]: 5.3 µM | TGI [20]: 18.9 µM | GI50 [21]: 8.04 µM | TGI [21]: 21.4 µM | GI50 [22]: 11.6 µM | TGI [22]: 25.8 µM | GI50 [23]: 13.9 µM | TGI [23]: 27.1 µM | GI50 [24]: 4.08 µM | TGI [24]: 17.7 µM | GI50 [25]: 8.81 µM | TGI [25]: 24.4 µM | GI50 [26]: 12.8 µM | TGI [26]: 42.9 µM | GI50 [27]: 10.8 µM | TGI [27]: 34.3 µM | GI50 [28]: 12.7 µM | TGI [28]: 31.2 µM | GI50 [29]: 9.55 µM | TGI [29]: 22.6 µM
